Where only a bound is given, the exact number is not on record here.

Results on one compound are retold here after publication PMC8467532, “DYRK1A Kinase Inhibitors Promote β-Cell Survival and Insulin Homeostasis” (Cells, 2021).

In one test the test system is INS-1E cells. Kind of test: Cell cycle analysis (propidium iodide). Conditions: 5 µM, 24 h. The format is cell-based, rat. The protocol:
To synchronize cell cultures, we used the serum starvation protocol. INS-1E cells were seeded in a 6-well plate in a growth medium with 20% FBS overnight. Then the cultures were rinsed by PBS and change to a serum-free medium. After serum starvation for 24 h, cells were released into the cell cycle by the addition of serum and 5 µM inhibitor solution for 24 h. The cells were then detached from the plate using trypsin. Then after washing, they were incubated with 50 µg/mL propidium iodide for 15 min in the dark. Cells were analyzed with the BDAccuri flow cytometer and calculated using FlowJo software.

The next test has as its target T1, DYRK1A kinase domain (Homo sapiens, UniProt Q13627).
T1 construct: kinase domain of DYRK1A (126–490) was cloned into pET24a with C-terminal His-tag; made in house; host or cells: E. coli BL21 (DE3) RIL
Kind of test: MST direct binding assay.

The next test relates to NFAT. Kind of test: NFAT luciferase reporter assay in HEK 293 NFAT cell line expressing DYRK1A. The format is cell-based. The protocol:
The Renilla luciferase reporter assay was performed in HEK 293 NFAT cell line, constitutively expressing DYRK1A, NFAT and Renilla luciferase under the control of an NFAT-RE promoter. The cells were seeded at 10,000 per well in 96-well white plates (Cellstar, Greiner; Burlington, MA, United States). The following day cells were incubated with the indicated concentration of inhibitor for 30 min, then the medium was changed, and cells were stimulated with 1 μM ionomycin and 10 nM PMA for 5 h. Next, the cell lysate was harvested to measure luciferase activity with Renilla-Glo Luciferase Assay System (Promega, Wisconsin, United States). All experiments were carried out in triplicates.

Test [1] concerns hiPSC-derived pancreatic organoids. Kind of test: Insulin secretion assay in hiPSC-derived β-cell organoids (ELISA). The test is classed as cell-based, human. Set-up: key to insulin secretion (ELISA): ↑: moderate; ↑↑: most potent. The protocol:
Differentiation of hiPSC into iPSC-derived β-cell islets was carried out following the protocol established by Pellegrini et al. for pluripotent stem cells with slight modifications. A day before differentiation, 800,000 cells were seeded on coated with Geltrex (Gibco) 12 wells plate in Essential 8 medium (Gibco) with Y-27632 10 µM (Abcam). The following culture media were used for differentiation:
M1 medium: MCDB131 (Gibco) + 8 mM D-(þ)-Glucose (Sigma) + 1.23 g/L NaHCO3 (Sigma) + 2% BSA (Sigma) + 0.25 mM Vitamin C (Sigma) + 1% Pen/Strep (Lonza, Basel, Switzerland) + 1% L-glutamine (Lonza);
M2 medium: MCDB131 + 20 mM D-Glucose + 1.754 g/L NaHCO3 + 2% BSA + 0.25 mM Vitamin C + Heparin 10mg/mL (Sigma) + 1% Pen/Strep + 1% L-glutamine. All media were filter-sterilized through a 0.22 µm bottle top filter (Corning, New York, NY, USA). For sequential culture medium changes, small molecules and growth factors were added to the base media immediately before daily exchange. Media switches were as follows: days 0–3: STEMdiff™ Definitive Endoderm Kit ([…], Vancouver, Canada) used following manufacturer instructions; days 4–6: M1 medium + 50 ng/mL KGF (Peprotech, London, UK) + 1:50,000 ITS-X (Invitrogen, Carlsbad, CA, USA); days 7–8: M1 medium + 50 ng/mL KGF + 0.25 µM Sant1 (Sigma) + […] Retinoic acid (RA) (Sigma) + 500 nM PdBU (Millipore, Berlington, MA, United States) + 1:200 ITS-X + 200 nM LDN193189 (only Day 7) (Sigma); days 9–13: M1 medium + 50 ng/mL KGF + 0.25 µM Sant1 + 100 nM RA + 1:200 ITS-X; days 14–18: M2 medium + 0.25 µM Sant1 + 100 nM RA + 1 µM XXI (Millipore) + 10 µM Alk5i II (Selleckchem, Munich, Germany) + 1 µM L-3,30,5-Triiodothyronine (T3) (Sigma) + 20 ng/mL Betacellulin (R&D, Minneapolis, MN, USA) + 1:200 ITS-X.
The Insulin ELISA (Ultra Sensitive) was used to quantify insulin levels in control and treated organoids and isolated islets from the mouse pancreas (Crystal Chem, Downers Grove, IL, USA). Islets were homogenized in lysis buffer. Obtained buffer lysates and medium samples (after GSIS) were analyzed for total protein level and subsequently processed following the manufacturer’s protocol.

A further test relates to DYRK1A in MIN6 cell line. Kind of test: DYRK1A expression by flow cytometry and confocal imaging. The test is classed as cell-based, mouse. The protocol:
The presence of insulin, glucagon, C-peptide, Ki67, and DYRK1A was assessed in MIN6 and INS-1E pancreatic cell lines. Before imaging, cells were seeded onto slides at a density of 1 × 10^5 cells and maintained at 37 °C in 95% atmospheric air and 5% CO2 in a humidified atmosphere for 24 h. After washing with fresh medium, cells were incubated with 5 µM inhibitor solution for 24 h. After this time, the solution was replaced with a culture medium for another 48 h. The cells were fixed. Then after washing and permeabilization, they were incubated with specific antibodies diluted in PBS. Next, the cells were incubated for 10 min with Hoechst33342 (Sigma-Aldrich). After incubation, at 37 °C, in the dark, the cells were washed twice with HBSS (Gibco), the slide was transferred to a microscope table, and the cells were visualized under a Zeiss LSM 880 confocal microscope (Carl Zeiss, Jena, Germany) with a 63× immersion objective. Images were analyzed by Zeiss ZEN Software.
The presence of insulin, glucagon, C-peptide, Ki67 and DYRK1A was assessed in MIN6 and INS-1E pancreatic cell lines. Before analysis, cells were seeded onto slides at a density of 1 × 10^5 cells and maintained at 37 °C in 95% atmospheric air and 5% CO2 in a humidified atmosphere for 24 h. After washing with fresh medium, cells were incubated with 5 µM inhibitor solution for 24 h. After this time, the solution was replaced with a culture medium for another 48 h. The cells were then detached from the plate using trypsin. The cells were fixed. Then after washing and permeabilization, they were incubated with specific antibodies diluted in PBS. Cells were analyzed with BDAccuri flow cytometer and calculated using FlowJo software (Ashland, Oregon-based FlowJo LLC, a subsidiary of Becton Dickinson).

`O=c1ccc2cnc3ccc(-c4cn[nH]c4)cc3c2n1-c1ccc(F)cc1C(F)(F)F` [AC27, 1-(4-fluoro-2-(trifluoromethyl)phenyl)-9-(1H-pyrazol-4-yl)benzo[h][1, 6]naphthyridin-2-one]: the “number of cells in the G2/M phase” value in the test with INS-1E cells is given as “increase”. Further, the Kd at DYRK1A kinase domain (MST direct binding, 20 nM fluorescent-labelled DYRK1A kinase domain) was determined as 1800 ± 500 nM; on DYRK1A kinase domain (Table 2, Biochemistry, unit inferred), 1830 ± 543 nM. Further, the “activity relative to harmine in NFAT assay” value in the test on NFAT (1 µM AC27 gives same activity as 10 µM harmine) is roughly 10 times. Besides, the “increase of NFAT activity” value with NFAT (low concentration range 0.03 µM–1 µM) is on record as no more than 6 fold. In test [1] (GSIS, compared with untreated control cells), the insulin release entry is reported as “markedly increased insulin release”. Also, the “insulin secretion (ELISA)” value in test [1] (Table 2, hiPSC) was “↑”. Also, in the test on DYRK1A in MIN6 cell line (MIN6, 24 h with inhibitor, control 74%), the “DYRK1A (fluorescence-positive cells, flow cytometry)” value came to 33%. In the test with DYRK1A in MIN6 cell line (MIN6, vs untreated control), the “DYRK1A signal in confocal imaging” value is “reduced”.
